Results reported in ChEMBL document CHEMBL1201862, “PubChem BioAssay data set” (2004).
The source made the active and inactive calls.

Assays:
[1] = target: Lysine-specific demethylase 4A (Homo sapiens, UniProt O75164); assay: inhibition of JMJD2A H3K9me3 demethylation – biochemical, DELFIA europium, cherry-picked samples, selectivity assay for GASC-1 inhibitor project, dose response (AID 488840)
[2] = target: T1, Heat shock factor protein 1 (Mus musculus, UniProt P38532); assay: decrease of HSF1-responsive luciferase luminescence – cell-based, NIH3T3, dose retest, confirmation (AID 2382); format: functional;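 further: NIH3T3 fibroblasts with HSF1-driven luciferase reporter stressed by proteasome inhibitor MG132; luminescence from HSF1-driven luciferase expression after 8 hours of MG132 stress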
T1 sequence (P38532 whole entry): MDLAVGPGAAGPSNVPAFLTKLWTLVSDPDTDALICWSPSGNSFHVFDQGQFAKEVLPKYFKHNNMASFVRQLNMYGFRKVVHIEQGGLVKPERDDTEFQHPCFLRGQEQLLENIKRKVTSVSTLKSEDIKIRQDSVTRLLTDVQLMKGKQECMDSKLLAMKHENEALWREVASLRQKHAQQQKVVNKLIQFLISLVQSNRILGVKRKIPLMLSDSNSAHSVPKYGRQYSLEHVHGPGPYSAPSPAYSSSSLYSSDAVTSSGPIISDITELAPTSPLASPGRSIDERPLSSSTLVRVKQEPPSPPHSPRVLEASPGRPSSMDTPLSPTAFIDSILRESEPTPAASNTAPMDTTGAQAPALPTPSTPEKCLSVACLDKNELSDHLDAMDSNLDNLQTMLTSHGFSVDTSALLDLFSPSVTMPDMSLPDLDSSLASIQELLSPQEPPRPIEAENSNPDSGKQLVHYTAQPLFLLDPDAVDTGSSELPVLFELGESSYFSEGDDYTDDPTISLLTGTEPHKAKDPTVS

Cytochrome P450 2C19 = Cytochrome P450 2C19 (Homo sapiens, UniProt P33261); assay: Cytochrome panel assay with activity outcomes. Panel member name: p450-cyp2c19 Compounds with AC50 equal or less than 10 uM are considered active; format: functional; conditions: read-out: AC50
Cytochrome P450 3A4 = Cytochrome P450 3A4 (Homo sapiens, UniProt P08684);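 further: CYP3A4 tested as one member of a cytochrome P450 panel screen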
Cytochrome P450 2D6 = Cytochrome P450 2D6 (Homo sapiens, UniProt P10635);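 further: CYP2D6 member of a cytochrome P450 panel assay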
Sequence of Cytochrome P450 2D6 (P10635 whole entry): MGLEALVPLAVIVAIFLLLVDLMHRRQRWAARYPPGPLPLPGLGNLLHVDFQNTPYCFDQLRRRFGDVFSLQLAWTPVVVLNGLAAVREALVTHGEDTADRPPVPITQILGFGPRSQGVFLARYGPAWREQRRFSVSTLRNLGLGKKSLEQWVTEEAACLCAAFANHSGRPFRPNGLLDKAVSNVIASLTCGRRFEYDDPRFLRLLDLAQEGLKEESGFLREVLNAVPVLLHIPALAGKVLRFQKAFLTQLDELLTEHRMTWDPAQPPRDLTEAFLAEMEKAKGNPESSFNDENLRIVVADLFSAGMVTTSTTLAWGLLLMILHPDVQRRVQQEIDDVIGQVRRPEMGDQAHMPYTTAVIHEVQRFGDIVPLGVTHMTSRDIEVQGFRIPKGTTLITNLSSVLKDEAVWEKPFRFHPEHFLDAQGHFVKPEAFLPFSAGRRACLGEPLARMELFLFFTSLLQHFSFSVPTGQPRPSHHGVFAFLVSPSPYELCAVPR

[3] = target: T2, Intestinal-type alkaline phosphatase (Mus musculus, UniProt P24822); assay: PubChem AID 488785; format: functional
T2 sequence (P24822 whole entry): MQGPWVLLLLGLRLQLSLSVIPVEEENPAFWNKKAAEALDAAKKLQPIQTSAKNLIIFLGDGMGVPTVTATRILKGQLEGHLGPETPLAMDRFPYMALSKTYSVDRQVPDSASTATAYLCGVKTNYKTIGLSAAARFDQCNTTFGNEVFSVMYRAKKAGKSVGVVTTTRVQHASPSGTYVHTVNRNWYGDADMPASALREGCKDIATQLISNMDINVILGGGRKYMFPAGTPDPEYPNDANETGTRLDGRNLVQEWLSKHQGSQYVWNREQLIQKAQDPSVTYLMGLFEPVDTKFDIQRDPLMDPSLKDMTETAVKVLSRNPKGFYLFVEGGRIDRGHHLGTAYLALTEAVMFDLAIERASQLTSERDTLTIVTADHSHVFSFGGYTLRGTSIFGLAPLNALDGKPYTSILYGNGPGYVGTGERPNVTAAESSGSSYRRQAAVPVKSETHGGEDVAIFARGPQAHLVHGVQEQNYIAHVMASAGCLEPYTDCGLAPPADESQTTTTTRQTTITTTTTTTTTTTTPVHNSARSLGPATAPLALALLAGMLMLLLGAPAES

[4] = target: T3, Alkaline phosphatase, tissue-nonspecific isozyme (Homo sapiens, UniProt P05186); assay: TNAP enzyme inhibition by screening hits, dose response, selectivity assay for mouse IAP inhibitor project, biochemical, human TNAP, uHTS hits (AID 488906); format: functional
T3 sequence (P05186 whole entry): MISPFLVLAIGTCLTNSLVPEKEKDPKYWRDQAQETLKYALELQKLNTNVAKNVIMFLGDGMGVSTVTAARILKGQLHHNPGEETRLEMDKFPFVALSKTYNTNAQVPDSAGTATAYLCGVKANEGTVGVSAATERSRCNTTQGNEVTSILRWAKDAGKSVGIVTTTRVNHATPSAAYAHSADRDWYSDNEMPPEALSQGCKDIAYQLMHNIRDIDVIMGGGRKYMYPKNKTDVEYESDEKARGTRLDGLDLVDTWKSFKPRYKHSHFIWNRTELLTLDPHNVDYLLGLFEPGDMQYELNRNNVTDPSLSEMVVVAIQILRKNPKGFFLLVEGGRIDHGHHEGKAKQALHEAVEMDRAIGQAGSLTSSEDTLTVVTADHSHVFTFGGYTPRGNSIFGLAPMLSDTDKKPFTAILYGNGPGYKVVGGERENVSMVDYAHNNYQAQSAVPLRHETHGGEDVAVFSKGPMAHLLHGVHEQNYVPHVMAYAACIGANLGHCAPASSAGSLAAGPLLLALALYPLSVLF

[5] = target: T4, Intestinal-type alkaline phosphatase (Homo sapiens, UniProt P09923); assay: inhibition of human intestinal alkaline phosphatase – biochemical, dose response (AID 488876); format: functional
T4 sequence (P09923 whole entry): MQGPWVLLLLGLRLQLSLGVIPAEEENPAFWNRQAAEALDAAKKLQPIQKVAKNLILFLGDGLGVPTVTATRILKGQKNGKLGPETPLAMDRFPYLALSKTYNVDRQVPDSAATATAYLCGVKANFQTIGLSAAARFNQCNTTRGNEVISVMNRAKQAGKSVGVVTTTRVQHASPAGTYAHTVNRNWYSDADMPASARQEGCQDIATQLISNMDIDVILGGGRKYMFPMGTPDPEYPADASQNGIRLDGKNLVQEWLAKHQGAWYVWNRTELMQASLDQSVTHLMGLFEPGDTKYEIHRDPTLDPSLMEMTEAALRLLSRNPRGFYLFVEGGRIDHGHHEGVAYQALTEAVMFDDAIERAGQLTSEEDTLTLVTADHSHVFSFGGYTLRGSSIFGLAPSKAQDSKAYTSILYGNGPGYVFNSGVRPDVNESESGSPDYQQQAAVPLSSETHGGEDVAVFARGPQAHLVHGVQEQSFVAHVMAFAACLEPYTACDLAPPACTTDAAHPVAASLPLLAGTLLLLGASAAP

[6] = target: T2, Intestinal-type alkaline phosphatase; assay: PubChem AID 488874; format: functional
[7] = target: T4, Intestinal-type alkaline phosphatase; assay: inhibition of human intestinal alkaline phosphatase – biochemical, luminescent, uHTS hits, set 2, dose response (AID 488793); format: functional
[8] = target: T4, Intestinal-type alkaline phosphatase; assay: Dose Response confirmation of uHTS hits from a small molecule inhibitors of human intestinal alkaline phosphatase via a luminescent assay. [Related pubchem assays (depositor defined):AID2544, AID2574]; format: functional
[9] = target: T3, Alkaline phosphatase, tissue-nonspecific isozyme; assay: inhibition of tissue-nonspecific alkaline phosphatase – biochemical, dose response (AID 488882); format: functional
[10] = HGIII-sPLA2 enzyme inhibition potency – biochemical, QFRET, IC50, dose response (AID 743457);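 further: green fluorescence rise as the enzyme cleaves BODIPY PC-A2 in liposomes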
[11] = target: Voltage-dependent T-type calcium channel subunit alpha-1H (Homo sapiens, UniProt O95180); assay: inhibition of CACNA1H calcium flux – cell-based, SynthLib3 library, HEK293 Cav3.2, fluorescence (AID 493041); format: functional
Sequence of Voltage-dependent T-type calcium channel subunit alpha-1H (O95180 whole entry, the tested form may be a part): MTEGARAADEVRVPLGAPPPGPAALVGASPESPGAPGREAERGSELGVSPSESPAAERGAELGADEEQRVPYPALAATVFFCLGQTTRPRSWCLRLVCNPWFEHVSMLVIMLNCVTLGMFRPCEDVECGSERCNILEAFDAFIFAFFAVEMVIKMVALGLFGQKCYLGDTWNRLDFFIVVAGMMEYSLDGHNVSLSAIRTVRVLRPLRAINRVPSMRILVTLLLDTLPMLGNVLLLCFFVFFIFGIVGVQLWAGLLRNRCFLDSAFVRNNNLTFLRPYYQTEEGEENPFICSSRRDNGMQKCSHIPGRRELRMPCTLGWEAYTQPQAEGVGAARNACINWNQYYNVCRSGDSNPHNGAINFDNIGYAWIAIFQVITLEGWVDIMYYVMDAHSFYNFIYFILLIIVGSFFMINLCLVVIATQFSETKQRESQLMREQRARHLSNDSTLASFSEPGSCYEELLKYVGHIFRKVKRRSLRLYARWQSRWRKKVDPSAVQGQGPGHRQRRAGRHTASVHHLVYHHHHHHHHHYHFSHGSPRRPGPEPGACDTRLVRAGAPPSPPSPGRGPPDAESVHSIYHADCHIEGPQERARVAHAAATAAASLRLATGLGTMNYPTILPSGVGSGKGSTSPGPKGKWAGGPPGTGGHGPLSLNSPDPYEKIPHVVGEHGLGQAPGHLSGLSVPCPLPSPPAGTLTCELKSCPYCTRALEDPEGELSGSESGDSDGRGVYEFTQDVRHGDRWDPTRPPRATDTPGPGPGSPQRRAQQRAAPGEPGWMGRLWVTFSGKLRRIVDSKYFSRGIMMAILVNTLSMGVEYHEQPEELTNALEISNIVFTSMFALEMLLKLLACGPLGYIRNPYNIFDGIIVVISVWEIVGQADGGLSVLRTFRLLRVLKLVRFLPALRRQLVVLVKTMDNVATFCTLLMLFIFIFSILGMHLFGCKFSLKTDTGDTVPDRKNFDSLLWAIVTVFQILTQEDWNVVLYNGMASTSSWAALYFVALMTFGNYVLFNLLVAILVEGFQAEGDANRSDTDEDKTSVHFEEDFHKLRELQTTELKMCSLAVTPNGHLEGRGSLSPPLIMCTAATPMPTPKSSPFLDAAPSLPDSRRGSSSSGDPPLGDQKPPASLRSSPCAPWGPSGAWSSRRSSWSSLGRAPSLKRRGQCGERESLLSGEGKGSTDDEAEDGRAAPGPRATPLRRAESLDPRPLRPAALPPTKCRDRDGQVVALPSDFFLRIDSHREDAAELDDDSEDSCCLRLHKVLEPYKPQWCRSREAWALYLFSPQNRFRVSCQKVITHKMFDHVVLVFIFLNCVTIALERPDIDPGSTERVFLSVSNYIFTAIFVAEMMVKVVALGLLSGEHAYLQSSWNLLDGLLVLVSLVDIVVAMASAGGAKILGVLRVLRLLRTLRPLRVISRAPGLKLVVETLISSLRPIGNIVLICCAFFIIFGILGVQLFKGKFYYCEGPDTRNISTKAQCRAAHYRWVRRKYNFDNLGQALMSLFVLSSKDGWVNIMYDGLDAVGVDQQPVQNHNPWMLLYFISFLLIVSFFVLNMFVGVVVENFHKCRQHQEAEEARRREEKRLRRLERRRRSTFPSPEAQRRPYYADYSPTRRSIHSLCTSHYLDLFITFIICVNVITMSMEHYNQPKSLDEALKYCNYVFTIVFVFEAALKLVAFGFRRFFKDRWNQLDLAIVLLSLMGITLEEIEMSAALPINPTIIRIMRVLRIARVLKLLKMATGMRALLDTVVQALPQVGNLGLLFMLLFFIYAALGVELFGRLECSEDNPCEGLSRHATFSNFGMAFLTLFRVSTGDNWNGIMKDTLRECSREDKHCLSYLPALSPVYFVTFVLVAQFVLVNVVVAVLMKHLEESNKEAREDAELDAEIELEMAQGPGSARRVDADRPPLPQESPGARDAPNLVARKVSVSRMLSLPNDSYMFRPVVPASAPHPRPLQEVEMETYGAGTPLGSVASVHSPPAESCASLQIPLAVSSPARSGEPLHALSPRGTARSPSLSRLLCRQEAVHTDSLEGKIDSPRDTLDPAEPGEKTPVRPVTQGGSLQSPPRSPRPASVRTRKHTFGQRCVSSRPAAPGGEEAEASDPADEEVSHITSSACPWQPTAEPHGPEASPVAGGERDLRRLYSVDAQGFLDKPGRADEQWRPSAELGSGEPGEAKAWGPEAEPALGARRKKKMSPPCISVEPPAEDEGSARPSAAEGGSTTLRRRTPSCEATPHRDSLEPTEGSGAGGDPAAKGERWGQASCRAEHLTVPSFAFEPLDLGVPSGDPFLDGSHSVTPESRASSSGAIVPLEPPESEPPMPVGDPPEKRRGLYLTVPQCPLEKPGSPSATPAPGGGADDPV

[12] = target: T5, Nucleotide-binding oligomerization domain-containing protein 1 (Homo sapiens, UniProt Q9Y239); assay: SAR analysis of compounds that inhibit NOD1 - Set 3. [Related pubchem assays (depositor defined):AID1566, AID1575, AID1578, AID1849, AID1852, AID2333, AID2335, AID2466]; format: functional
T5 sequence (Q9Y239 whole entry): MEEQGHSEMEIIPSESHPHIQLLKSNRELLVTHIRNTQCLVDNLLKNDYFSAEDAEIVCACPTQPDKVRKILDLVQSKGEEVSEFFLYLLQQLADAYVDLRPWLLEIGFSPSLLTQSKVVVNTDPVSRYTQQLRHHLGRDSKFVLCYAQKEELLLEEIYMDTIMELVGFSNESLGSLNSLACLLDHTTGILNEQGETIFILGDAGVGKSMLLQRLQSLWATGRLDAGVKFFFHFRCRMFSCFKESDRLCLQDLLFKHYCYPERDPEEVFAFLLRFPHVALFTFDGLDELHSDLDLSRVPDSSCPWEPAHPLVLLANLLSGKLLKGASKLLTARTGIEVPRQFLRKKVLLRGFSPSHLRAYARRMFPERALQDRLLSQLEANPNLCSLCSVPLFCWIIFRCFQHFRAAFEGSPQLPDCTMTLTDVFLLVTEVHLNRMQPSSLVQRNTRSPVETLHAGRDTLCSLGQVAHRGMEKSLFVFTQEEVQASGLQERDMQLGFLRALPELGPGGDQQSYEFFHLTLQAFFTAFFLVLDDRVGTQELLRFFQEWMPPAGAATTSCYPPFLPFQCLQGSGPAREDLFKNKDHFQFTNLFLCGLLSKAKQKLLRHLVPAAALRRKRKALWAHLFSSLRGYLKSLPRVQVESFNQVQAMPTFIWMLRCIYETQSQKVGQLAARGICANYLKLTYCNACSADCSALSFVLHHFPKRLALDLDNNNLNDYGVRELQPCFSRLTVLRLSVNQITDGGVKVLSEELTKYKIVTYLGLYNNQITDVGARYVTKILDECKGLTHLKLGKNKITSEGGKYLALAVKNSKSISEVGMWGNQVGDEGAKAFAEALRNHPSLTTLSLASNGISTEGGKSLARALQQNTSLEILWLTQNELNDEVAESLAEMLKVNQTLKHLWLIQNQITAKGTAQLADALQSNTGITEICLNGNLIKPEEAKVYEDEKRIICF

Tumor necrosis factor = Tumor necrosis factor (Homo sapiens, UniProt P01375); assay: analog potency on TNFa NF-kB signaling – cell-based, set 3, SAR follow-up (AID 2801); format: functional
HEK293 = assay: SAR analysis of compounds that are cytotoxic to HEK293 - Set 3. [Related pubchem assays (depositor defined):AID1575, AID1578, AID1848, AID1849, AID2001, AID2333, AID2334, AID2335, AID2337, AID2469]; format: functional, cell-based; conditions: Homo sapiens
[13] = target: Nucleotide-binding oligomerization domain-containing protein 2 (Homo sapiens, UniProt Q9HC29); assay: inhibition of MDP-driven NOD2 NF-kB reporter – cell-based, set 3, SAR follow-up (AID 2799); format: functional
Sequence of Nucleotide-binding oligomerization domain-containing protein 2 (Q9HC29 whole entry, the tested form may be a part): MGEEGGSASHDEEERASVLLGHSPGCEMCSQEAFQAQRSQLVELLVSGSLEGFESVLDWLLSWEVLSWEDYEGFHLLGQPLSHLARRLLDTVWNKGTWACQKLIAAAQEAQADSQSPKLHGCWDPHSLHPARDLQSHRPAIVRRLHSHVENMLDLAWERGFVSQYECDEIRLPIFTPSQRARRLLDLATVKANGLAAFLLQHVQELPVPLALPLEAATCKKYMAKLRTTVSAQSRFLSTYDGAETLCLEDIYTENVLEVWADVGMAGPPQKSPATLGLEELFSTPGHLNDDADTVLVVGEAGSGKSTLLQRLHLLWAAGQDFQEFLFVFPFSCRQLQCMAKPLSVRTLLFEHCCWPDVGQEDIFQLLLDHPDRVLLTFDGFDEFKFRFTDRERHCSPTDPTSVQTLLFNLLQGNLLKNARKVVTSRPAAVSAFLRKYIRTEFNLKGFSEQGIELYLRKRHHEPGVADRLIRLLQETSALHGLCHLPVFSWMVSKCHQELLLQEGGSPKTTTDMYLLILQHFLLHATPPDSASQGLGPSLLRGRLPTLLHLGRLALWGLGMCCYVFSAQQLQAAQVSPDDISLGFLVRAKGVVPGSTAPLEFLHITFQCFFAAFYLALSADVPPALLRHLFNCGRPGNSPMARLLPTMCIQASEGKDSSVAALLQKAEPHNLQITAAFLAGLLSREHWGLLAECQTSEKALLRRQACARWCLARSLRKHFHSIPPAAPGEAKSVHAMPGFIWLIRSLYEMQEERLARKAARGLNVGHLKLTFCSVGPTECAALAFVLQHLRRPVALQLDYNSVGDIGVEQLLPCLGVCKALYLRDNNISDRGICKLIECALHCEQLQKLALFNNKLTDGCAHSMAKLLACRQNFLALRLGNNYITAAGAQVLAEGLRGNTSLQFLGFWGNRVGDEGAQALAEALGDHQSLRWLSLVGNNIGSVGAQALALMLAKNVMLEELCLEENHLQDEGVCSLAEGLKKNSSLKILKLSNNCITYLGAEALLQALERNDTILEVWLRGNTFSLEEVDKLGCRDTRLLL

[14] = target: T2, Intestinal-type alkaline phosphatase; assay: PubChem AID 488875; format: functional
[15] = target: T4, Intestinal-type alkaline phosphatase; assay: human intestinal alkaline phosphatase activators, dose response, biochemical, luminescence, uHTS hits (AID 463120); format: functional
[16] = target: T4, Intestinal-type alkaline phosphatase; assay: activation of human intestinal alkaline phosphatase – biochemical, luminescent, uHTS hits, set 2, dose response (AID 488817); format: functional;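 further: potency of activators that raise enzyme activity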
[17] = target: T3, Alkaline phosphatase, tissue-nonspecific isozyme; assay: activation of tissue-nonspecific alkaline phosphatase – biochemical, TNAP isozyme, human IAP uHTS hits, selectivity assay for human IAP activator project, dose response (AID 488886); format: functional;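 further: potency of compounds raising TNAP activity as a selectivity check on IAP activators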
cells = format: functional, cell-based
[18] = target: T6, Nuclear receptor subfamily 0 group B member 1 (Homo sapiens, UniProt P51843); format: functional, cell-based;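 further: HEK293T cells transfected with SF-1 and DAX-1 plus StAR promoter luciferase reporter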
T6 sequence (P51843 whole entry): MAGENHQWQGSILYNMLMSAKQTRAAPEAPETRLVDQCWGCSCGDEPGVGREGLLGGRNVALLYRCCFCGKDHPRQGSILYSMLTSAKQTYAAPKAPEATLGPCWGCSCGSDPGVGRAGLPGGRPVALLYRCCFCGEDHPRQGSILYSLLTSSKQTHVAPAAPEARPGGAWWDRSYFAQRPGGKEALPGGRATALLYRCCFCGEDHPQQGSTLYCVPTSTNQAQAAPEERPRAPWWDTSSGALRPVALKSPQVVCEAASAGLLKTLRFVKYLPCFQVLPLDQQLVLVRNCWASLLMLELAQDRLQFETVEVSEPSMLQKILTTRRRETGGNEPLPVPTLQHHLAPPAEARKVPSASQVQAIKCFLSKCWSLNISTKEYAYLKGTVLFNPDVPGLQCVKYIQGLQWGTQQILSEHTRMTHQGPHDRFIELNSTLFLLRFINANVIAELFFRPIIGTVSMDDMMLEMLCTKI

With Cc1cc(C(=O)Nc2sc3c(c2C#N)CCC(C)C3)no1 (centres undefined) the AC50 [1] was > 60 µM (inactive).
In the case of CCOC(=O)Cc1csc(NC(=O)c2sc3nc4ccc(CC)cc4cc3c2N)n1, the EC50 [2] is reported as > 195 µM (not active), the AC50 (Cytochrome P450 2C19) is reported as 0.2 µM (inconclusive) and the AC50 (Cytochrome P450 3A4) is reported as 35.5 µM (inconclusive). For the same compound, the AC50 (Cytochrome P450 2D6) was “inconclusive”.
With COc1ccc(CN2C3CCCC2CC(NC(=O)Nc2cccc(C)c2)C3)cc1 (centres undefined) the IC50 [3] was 11 µM (active), the IC50 [4] was 32.2 µM (active) and the IC50 [5] was 22.7 µM (active).
With CCN(CC)c1ccc(N=Nc2nn(C)c(C)c2[N+](=O)[O-])cc1 the IC50 [6] was 35.3 µM (active), the IC50 [7] was 52.5 µM (active) and the IC50 [8] was 13 µM (inactive). The IC50 [9] was 47.1 µM (active) and the IC50 [10] was > 122 µM (inactive).
With CCC(C)CN1CC2CCC(NC(=O)c3cc(Cl)cc(Cl)c3)C2C1 (centres undefined) the EC50 [11] was 9.4 µM (active).
For Nc1nc2ccccc2n1S(=O)(=O)c1ccc(OC(F)(F)F)cc1, the IC50 [12] was 8.94 µM (active), the IC50 (Tumor necrosis factor) was > 20 µM (inactive) and the IC50 (HEK293) was > 20 µM (inactive). The IC50 [13] was > 20 µM (inactive).
For CCc1ccc(/C=N/Nc2[nH]cnc3ncnc2-3)cc1, the EC50 [14] was > 100 µM (inactive), the EC50 [15] was 6.62 µM (active) and the EC50 [16] was 12.5 µM (active). For the same compound, the EC50 [17] was 17.7 µM (active), the IC50 (cells) was > 67.5 µM (inactive) and the IC50 [18] was 2.09 µM (active).
